Experimental data reported in ChEMBL document CHEMBL3399932, “Synthesis of new N-benzylpiperidine derivatives as cholinesterase inhibitors with β-amyloid anti-aggregation properties and beneficial effects on memory in vivo” (Bioorg Med Chem, 2015).
Calls of active or inactive are those of the source. The rule behind the calls is not given here.

How the values were obtained:
Mus musculus [1] = assay: Toxicity in albino Swiss CD-1 mouse assessed as decrease in impairment of motor coordination at 24 rpm at 30 mg/kg, ip administered 1 hr before test by rotarod test; type: organism-based; set-up: dose 30 mg/kg, route intraperitoneal; scale not given: the % may be the effect or the level left; conditions: in vivo
Mus musculus [2] = assay: Effect on scopolamine-induced cognitive dysfunction in albino Swiss CD-1 mouse assessed as reduction in step-through latency time during retention trial at 5 to 30 mg/kg, ip administered 1 hr before the acquisition trial measured 24 hrs after acquisition trial over 180 seconds by passive avoidance test; type: functional, organism-based
[3] = target: Acetylcholinesterase (Electrophorus electricus) (UniProt O42275); assay: Inhibition of electric eel AChE using acetylthiocholine iodide as substrate preincubated at 10^-4 mol/L for 5 mins by Ellman method
Mus musculus [4] = assay: Toxicity in albino Swiss CD-1 mouse assessed as decrease in impairment of motor coordination at 24 rpm at 100 mg/kg, ip administered 1 hr before test by rotarod test; type: organism-based; set-up: dose 100 mg/kg, route intraperitoneal; conditions: in vivo
Mus musculus [5] = assay: Sedative activity in albino Swiss CD-1 mouse assessed as decrease in spontaneous locomotor activity at 30 mg/kg, ip administered 1 hr before test measured at 18 to 30 mins of test; type: ADME, organism-based; set-up: dose 30 mg/kg, route intraperitoneal; conditions: in vivo
[6] = target: Amyloid-beta precursor protein (Homo sapiens) (UniProt P05067); assay: Inhibition of self-induced beta-amyloid (1 to 42) (unknown origin) aggregation by thioflavin-T assay
Mus musculus [7] = assay: Sedative activity in albino Swiss CD-1 mouse assessed as decrease in spontaneous locomotor activity at 30 mg/kg, ip administered 1 hr before test measured up to 6 mins of test; type: ADME, organism-based; set-up: dose 30 mg/kg, route intraperitoneal; conditions: in vivo
Mus musculus [8] = assay: Effect on scopolamine-induced cognitive dysfunction in albino Swiss CD-1 mouse assessed as reduction in step-through latency time at 5 to 30 mg/kg, ip administered 1 hr before the acquisition trial by passive avoidance test; type: functional, organism-based
Cholinesterase = Cholinesterase (Equus caballus, UniProt P81908)
Mus musculus [9] = assay: Toxicity in albino Swiss CD-1 mouse assessed as decrease in impairment of motor coordination at 6 to 18 rpm at 30 to 100 mg/kg, ip administered 1 hr before test by rotarod test; type: organism-based; set-up: dose 30-100 mg/kg, route intraperitoneal; conditions: in vivo
Acetylcholinesterase = Acetylcholinesterase (Electrophorus electricus, UniProt O42275)
[10] = target: Cholinesterase (Equus caballus) (UniProt P81908); assay: Inhibition of horse serum BChE using butyrylthiocholine iodide as substrate preincubated at 10^-4 mol/L for 5 mins by Ellman method
[11] = PAMPA, 2 h
[12] = target: Acetylcholinesterase (Electrophorus electricus) (UniProt O42275); conditions: 5 to 10 uM
[13] = target: Cholinesterase (Equus caballus) (UniProt P81908); assay: Inhibition of horse serum BChE using butyrylthiocholine iodide as substrate preincubated at 0.5 to 1 uM for 5 mins by Lineweaver-Burk plot method

Chain of Acetylcholinesterase (O42275 whole entry): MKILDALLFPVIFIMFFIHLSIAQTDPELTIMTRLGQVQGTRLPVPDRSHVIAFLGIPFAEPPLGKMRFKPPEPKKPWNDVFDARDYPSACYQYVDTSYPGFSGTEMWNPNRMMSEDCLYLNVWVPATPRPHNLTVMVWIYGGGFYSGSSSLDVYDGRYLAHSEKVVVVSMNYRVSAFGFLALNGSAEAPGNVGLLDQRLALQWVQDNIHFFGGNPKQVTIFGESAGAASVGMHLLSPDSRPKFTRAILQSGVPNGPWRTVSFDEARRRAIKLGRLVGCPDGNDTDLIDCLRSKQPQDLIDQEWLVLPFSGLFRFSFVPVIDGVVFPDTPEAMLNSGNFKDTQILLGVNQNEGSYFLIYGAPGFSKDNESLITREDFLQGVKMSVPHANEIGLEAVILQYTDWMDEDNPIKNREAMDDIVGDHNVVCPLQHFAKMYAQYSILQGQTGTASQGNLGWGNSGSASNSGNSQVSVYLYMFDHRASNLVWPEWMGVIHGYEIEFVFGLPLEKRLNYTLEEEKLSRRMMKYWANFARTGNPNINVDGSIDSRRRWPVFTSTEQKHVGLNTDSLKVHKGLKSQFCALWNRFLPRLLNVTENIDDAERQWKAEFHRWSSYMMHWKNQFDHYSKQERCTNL
Chain of Cholinesterase (P81908 whole entry): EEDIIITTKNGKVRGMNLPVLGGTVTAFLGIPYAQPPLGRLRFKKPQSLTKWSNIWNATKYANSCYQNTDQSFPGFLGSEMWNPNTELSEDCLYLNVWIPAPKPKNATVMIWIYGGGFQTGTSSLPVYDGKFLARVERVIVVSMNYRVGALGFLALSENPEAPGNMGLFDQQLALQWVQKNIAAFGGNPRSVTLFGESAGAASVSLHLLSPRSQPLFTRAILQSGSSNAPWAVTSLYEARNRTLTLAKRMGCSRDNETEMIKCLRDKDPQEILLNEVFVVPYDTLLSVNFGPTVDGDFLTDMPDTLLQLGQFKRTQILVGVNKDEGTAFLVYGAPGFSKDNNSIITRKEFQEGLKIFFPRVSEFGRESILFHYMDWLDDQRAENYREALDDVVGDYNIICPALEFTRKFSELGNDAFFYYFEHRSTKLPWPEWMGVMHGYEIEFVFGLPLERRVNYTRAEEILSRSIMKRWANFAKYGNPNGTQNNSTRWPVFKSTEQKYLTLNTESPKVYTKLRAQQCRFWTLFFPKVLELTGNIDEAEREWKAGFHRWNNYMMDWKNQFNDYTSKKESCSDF
Chain of Acetylcholinesterase (Electrophorus electricus) (O42275 24-633 limits assumed): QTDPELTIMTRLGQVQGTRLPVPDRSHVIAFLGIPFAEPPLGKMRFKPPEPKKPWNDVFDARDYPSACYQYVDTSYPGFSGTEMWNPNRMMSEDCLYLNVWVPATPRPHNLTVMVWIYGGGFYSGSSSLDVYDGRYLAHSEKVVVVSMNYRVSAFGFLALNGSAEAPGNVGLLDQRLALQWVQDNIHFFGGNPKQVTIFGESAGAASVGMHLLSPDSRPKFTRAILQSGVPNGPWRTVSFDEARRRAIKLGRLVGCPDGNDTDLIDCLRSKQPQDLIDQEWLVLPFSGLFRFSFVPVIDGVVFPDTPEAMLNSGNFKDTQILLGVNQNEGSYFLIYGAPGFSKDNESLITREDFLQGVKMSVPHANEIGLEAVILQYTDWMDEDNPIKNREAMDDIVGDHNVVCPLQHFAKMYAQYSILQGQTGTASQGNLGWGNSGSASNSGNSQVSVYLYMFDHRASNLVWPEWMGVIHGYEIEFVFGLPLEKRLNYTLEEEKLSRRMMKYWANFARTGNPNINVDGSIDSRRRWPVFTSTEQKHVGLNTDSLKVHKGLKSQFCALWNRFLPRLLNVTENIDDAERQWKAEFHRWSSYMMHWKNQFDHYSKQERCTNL
Chain of Cholinesterase (Equus caballus) (P81908 whole entry): as the sequence (P81908 whole entry) above
Chain of Amyloid-beta precursor protein (Homo sapiens) (P05067 whole entry): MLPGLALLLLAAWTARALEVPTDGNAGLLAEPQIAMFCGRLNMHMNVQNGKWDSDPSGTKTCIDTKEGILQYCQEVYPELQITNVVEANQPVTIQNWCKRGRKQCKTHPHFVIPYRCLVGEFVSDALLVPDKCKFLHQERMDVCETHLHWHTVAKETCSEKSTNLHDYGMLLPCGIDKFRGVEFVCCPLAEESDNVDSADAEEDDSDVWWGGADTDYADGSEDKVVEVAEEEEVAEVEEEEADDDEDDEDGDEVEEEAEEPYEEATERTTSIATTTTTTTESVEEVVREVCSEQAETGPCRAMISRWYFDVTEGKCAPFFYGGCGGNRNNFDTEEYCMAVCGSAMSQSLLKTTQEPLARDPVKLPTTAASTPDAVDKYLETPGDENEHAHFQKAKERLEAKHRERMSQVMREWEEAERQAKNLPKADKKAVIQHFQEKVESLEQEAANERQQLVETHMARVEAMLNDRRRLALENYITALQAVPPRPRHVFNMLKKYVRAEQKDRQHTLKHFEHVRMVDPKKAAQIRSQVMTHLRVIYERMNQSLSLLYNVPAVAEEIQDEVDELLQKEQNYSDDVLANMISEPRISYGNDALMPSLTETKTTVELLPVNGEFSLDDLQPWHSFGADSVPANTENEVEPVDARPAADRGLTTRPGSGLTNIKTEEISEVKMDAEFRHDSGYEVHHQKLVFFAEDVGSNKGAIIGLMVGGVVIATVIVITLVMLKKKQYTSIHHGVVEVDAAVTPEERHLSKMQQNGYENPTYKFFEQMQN

Compound	IC50 (Cholinesterase)	IC50 (Acetylcholinesterase)	further results
O=C1c2ccccc2C(=O)N1CCCCCCCCNC1CCN(Cc2cccc(Cl)c2)CC1	0.72 µM	–	Activity (Mus musculus [1]): 38%; Activity (Mus musculus [2]): Active; inhibition [3]: < 60%; Activity (Mus musculus [4]): Toxic; Activity (Mus musculus [5]): Toxic; inhibition [6]: Dose-dependent effect; Activity (Mus musculus [7]): Non-toxic; Activity (Mus musculus [8]): Active; Activity (Mus musculus [9]): Non-toxic
Clc1cccc(CN2CCC(NCCCCCCn3ccc4ccccc43)CC2)c1	0.83 µM	53.2 µM	–
Clc1cccc(CN2CCC(NCCCCCCCCn3ccc4ccccc43)CC2)c1	0.75 µM	21.7 µM	–
O=C1c2ccccc2C(=O)N1CCCNC1CCN(Cc2ccccc2F)CC1	10.5 µM	23.1 µM	–
Oc1ccc(CN2CCC(NCCCCCCn3ccc4ccccc43)CC2)cc1	1.78 µM	–	inhibition [3]: < 60%
Fc1ccccc1CN1CCC(NCCCCCCCCn2ccc3ccccc32)CC1	0.93 µM	29.6 µM	–
Oc1ccc(CN2CCC(NCCCCCCCCn3ccc4ccccc43)CC2)cc1	1.33 µM	–	inhibition [3]: < 60%
COc1ccc(CN2CCC(NCCCCCCCCn3ccc4ccccc43)CC2)cc1	0.34 µM	–	inhibition [3]: < 60%
O=C1c2ccccc2C(=O)N1CCCNC1CCN(Cc2ccccc2)CC1	51.8 µM	8.11 µM	–
O=C1c2ccccc2C(=O)N1CCCCCNC1CCN(Cc2ccccc2)CC1	–	69 µM	inhibition [10]: < 60%
O=C1c2ccccc2C(=O)N1CCCCCCCCNC1CCN(Cc2ccccc2)CC1	1.98 µM	17.7 µM	–
c1ccc(CN2CCC(NCCCCCn3ccc4ccccc43)CC2)cc1	1.83 µM	0.02 µM	–
O=C1c2ccccc2C(=O)N1CCCCCCNC1CCN(Cc2ccccc2)CC1	12.8 µM	45.4 µM	–
CC(C)NCC(O)COc1cccc2ccccc12 (stereo not drawn) [PROPRANOLOL]	–	–	log Pe [11]: -3.5
O=C1c2ccccc2C(=O)N1CCCNC1CCN(Cc2cccc(Cl)c2)CC1	4.53 µM	68.3 µM	–
c1ccc(CN2CCC(NCCCCCCn3ccc4ccccc43)CC2)cc1	15.3 µM	0.01 µM	–
O=C1c2ccccc2C(=O)N1CCCCCCCCNC1CCN(Cc2ccc(O)cc2)CC1	0.81 µM	23.5 µM	–
COc1ccc(CN2CCC(NCCCCCCn3ccc4ccccc43)CC2)cc1	0.52 µM	–	inhibition [3]: < 60%
COc1ccc(CN2CCC(NCCCCCCCCN3C(=O)c4ccccc4C3=O)CC2)cc1	5.65 µM	43.3 µM	–
c1ccc(CN2CCC(NCCCCCCCCn3ccc4ccccc43)CC2)cc1	1.08 µM	70.1 µM	–
O=C1c2ccccc2C(=O)N1CCCCCCCCNC1CCN(Cc2ccccc2F)CC1	1.87 µM	43.4 µM	–
O=C1c2ccccc2C(=O)N1CCCCCCNC1CCN(Cc2ccc(O)cc2)CC1	2.32 µM	29.8 µM	–
O=C1c2ccccc2C(=O)N1CCCNC1CCN(Cc2ccc(O)cc2)CC1	9.37 µM	4.52 µM	inhibition [12]: Active; inhibition [13]: Active
c1ccc(CN2CCC(NCCCn3ccc4ccccc43)CC2)cc1	0.002 µM	–	inhibition [3]: < 60%
O=C1c2ccccc2C(=O)N1CCCCCCNC1CCN(Cc2cccc(Cl)c2)CC1	2.73 µM	54.4 µM	–
COc1ccc(CN2CCC(NCCCN3C(=O)c4ccccc4C3=O)CC2)cc1	26.8 µM	–	inhibition [3]: < 60%
COc1ccc(CN2CCC(NCCCCCCN3C(=O)c4ccccc4C3=O)CC2)cc1	7.39 µM	–	inhibition [3]: < 60%
Fc1ccccc1CN1CCC(NCCCCCCn2ccc3ccccc32)CC1	3.41 µM	42 µM	–
O=C1c2ccccc2C(=O)N1CCCCCCNC1CCN(Cc2ccccc2F)CC1	4 µM	85.3 µM	–
CC(=O)[C@H]1CC[C@H]2[C@@H]3CCC4=CC(=O)CC[C@]4(C)[C@H]3CC[C@]12C [PROGESTERONE]	–	–	log Pe [11]: -5.1
